Experimental findings from PubChem BioAssay AID602211 (Sanford-Burnham Center for Chemical Genomics, 2012) are described below.

Activity calls are given as the source filed them.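 How the source made its calls: active means mean IC50 at or below 10 µM; inactive means the rest.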 Some results are limits rather than exact numbers.

In general, IC50 refers to the concentration that inhibits the measured activity by half.

The assay concerns H9c2 cardiomyocytes, H2O2 protection, ATPLite viability, 2 h. Nature of the assay: H2O2-induced H9c2 cell death suppression – ATPLite luminescence, set 2, dose response (AID 602211).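 Further: potency is for protection so actives keep ATP signal up against peroxide killing.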 A general note: Cellular ATP, detected with luciferase, serves as a proxy for viable cell number.
Turning to `CCc1nc2ccc(C(=O)Nc3cc(-c4ccccc4)ccc3OC)cn2c1N(C)Cc1nccs1`, the IC50 was 5.95 µM. The same measure for `COc1ccc(CNn2c(-c3cccs3)nc3ccccc3c2=O)cc1OC`: 7.18 µM; for `CCC(=O)Nc1cccc(-c2nnc(-c3cccc(NC(=O)CC)c3)o2)c1`: 4.1 µM; for `CCOCc1c(C(=O)NC2=Nc3ccccc3NC(CC)=C2C(=O)OCC)oc2ccccc12`: > 79 µM (inactive). For `Brc1ccc(-c2ccc(/C=N/Nc3nc(N4CCOCC4)nc(N4CCOCC4)n3)o2)cc1` the value was 3.61 µM. Regarding `CC(=O)Nc1cccc(-c2cc(NC(C)=O)c3ncc(-c4ccccc4)n3c2)c1`, the IC50 is 13.7 µM (inactive). The same measure for `COCCn1cnc2c(c1=O)c1nc3ccccc3nc1n2/N=C/c1cccc(OC)c1`: 13.6 µM (inactive); for `O=C1N[C@H](Cc2ccccc2)COC(=O)[C@@H](Cc2ccc(F)cc2)C/C=C\C[C@H]1CC(=O)N(CCO)Cc1ccccc1`: > 79 µM (inactive); for `COc1ccc(CCNC(=O)C(=O)NCC2CCCN2S(=O)(=O)c2ccccc2)cc1OC` (stereo unspecified): 6.18 µM.

Consider `NC(=O)COc1ccc2oc(=O)cc(-c3cc4ccccc4o3)c2c1`, for which the IC50 is 9.93 µM. Regarding `COc1ccc(-c2csc(NC(=O)c3cccc(N4C(=O)CCC4=O)c3)n2)cc1OC`, the IC50 was 5 µM. The same measure for `CCN(C[C@H]1N[C@@](Cc2ccccc2)(C(=O)OC)[C@H]2C(=O)N(C)C(=O)[C@@H]12)S(=O)(=O)c1ccc(OC)cc1`: 21.1 µM (inactive). The same measure for `COc1ccc2oc(C(=O)Nc3ccc(N4CCOCC4)cc3)c(C)c2c1`: > 79 µM (inactive); for `COc1ccc(-n2c(/C=C/c3ccc(O)cc3)nc3ccccc3c2=O)cc1`: 6.21 µM. The same measure for `CCOCCCNC(=O)CCC(=O)NNc1nc2ccccc2c2nc(-c3ccccc3)nn12`: 42.6 µM (inactive). Take `Cc1ccc(-n2cc(-c3ccccc3)c3c(N4CCOCC4)ncnc32)cc1`: the IC50 is 5.98 µM. The same measure for `Cc1nn2c(-c3cccc(NC(=O)c4ccco4)c3)nnc2c2ccccc12`: 1.66 µM; for `CCOc1ccc(C(C(=O)NCC2CCCO2)N(C(=O)c2snc(C(N)=O)c2N)c2ccccc2F)cc1` (stereo unspecified): 3.67 µM. For `Cc1ccccc1C1c2[nH]c3ccccc3c2C[C@H]2C(=O)N(c3ccccc3C(=O)NCCCN3CCOCC3)C(=O)N12` (stereo partly specified) the value was 17.2 µM (inactive). For `Cc1nc(SCC(=O)N2CCN(c3ccccc3)CC2)c2oc3ccccc3c2n1` the value was 3.43 µM; for `COc1cccc(-c2nn3c(-c4ccccn4)nnc3s2)c1`, 6.65 µM; for `O=C(Nc1ccccc1)c1nc[nH]c1C(=O)NCCCCCCNC(=O)c1[nH]cnc1C(=O)Nc1ccccc1`, 5.52 µM. Regarding `COc1cc(NC(=O)c2cc3ccccc3cc2OC)ccc1NC(=O)c1cccs1`, the IC50 was 3.59 µM. The same measure for `COc1ccc(C(C(=O)NC2CCCC2)N(C(=O)c2snc(C(N)=O)c2N)c2cccc(O)c2)cc1` (stereo unspecified): 12.7 µM (inactive); for `C[C@H](NC(=O)c1nc[nH]c1C(=O)NCC(=O)OCc1ccccc1)C(=O)OCc1ccccc1`: 26.2 µM (inactive); for `COc1cc(/C=N/NC(=O)c2cccnc2)ccc1OS(=O)(=O)c1cc(C)ccc1C`: > 79 µM (inactive). The same measure for `COc1cc(Nc2nc3ccccc3n3nnnc23)cc(OC)c1OC`: 1.38 µM; for `CC(=O)Nc1cc(-c2ccccc2)cn2c(-c3cccc(C(C)=O)c3)cnc12`: 8.67 µM. Turning to `COc1ccc(-c2cc(C(=O)N(C)Cc3nc4ccccc4c(=O)[nH]3)c3ccccc3n2)cc1OC`, the IC50 is 1.71 µM.

On to `COc1cc(-c2cc(NC(C)=O)c3ncc(-c4ccc(C(C)=O)cc4)n3c2)cc(OC)c1OC`, for which the IC50 was 6.06 µM. For `O=C(NCc1ccco1)C(c1ccccc1)N(C(=O)Cc1cccs1)c1ccccc1F` (stereo unspecified) the value was 3.52 µM; for `CSc1nc2ccc(S(=O)(=O)Nc3c(C)n(C)n(-c4ccccc4)c3=O)cc2s1`, 3.1 µM; for `CCCc1cc(N2CCN(C(=O)c3ccco3)CC2)n2c(nc3ccccc32)c1C#N`, > 79 µM (inactive). On to `Cc1nc(NC(=O)c2cc3c(C)nn(-c4ccccc4)c3s2)sc1C(=O)Nc1ccccc1`, for which the IC50 is 2.7 µM. The same measure for `Cc1cc(C)c(C)c(S(=O)(=O)N2CCN(C(=O)c3cc(=O)[nH]c4ccccc34)CC2)c1C`: 0.998 µM; for `CCOc1ccc(S(=O)(=O)N(C)CCO)cc1-c1nc2c(C(C)(C)C)nn(C)c2c(=O)[nH]1`: 5.22 µM. The same measure for `O=C(CN1CCN(c2ccccn2)CC1)Nc1ccc([N+](=O)[O-])cc1C(=O)Nc1ccccc1F`: 7.08 µM. For `COC(=O)c1ccc(N)c(N=CC2=C(O)CC(C)(C)CC2=O)c1` the value was 7.63 µM. `CC(C)(C)OC(=O)C[C@@H]1C/C=C\C[C@@H](CC(=O)N[C@H](CO)Cc2ccccc2)C(=O)NC[C@@H](c2ccccc2)OC1=O`: the IC50 is 17.6 µM (inactive). The same measure for `COc1cccc(/C=N/Nc2nc3ccccc3n3cnnc23)c1`: > 79 µM (inactive). For `O=C(N/N=C/c1ccccn1)c1ccc(NC(=O)c2cccc([N+](=O)[O-])c2)cc1` the value was 7.34 µM; for `COc1ccc(-n2c(/C=C/c3ccc(O)c(OC)c3)nc3ccccc3c2=O)cc1`, 1.58 µM; for `COc1ccnc(Oc2ccccc2)c1C(=O)N/C=N/OCc1ccc(F)cc1Cl`, > 79 µM (inactive).

As for `Nc1c(C(=O)NC2CC2)c2nc3ccccc3nc2n1-c1ccc2c(c1)OCO2`, the IC50 is 4.49 µM.

For the compound `CC(C)(C)OC(=O)NCc1ccc(NC(=O)c2nc[nH]c2C(=O)NCCCCCCNC(=O)c2[nH]cnc2C(=O)Nc2ccc(CNC(=O)OC(C)(C)C)cc2)cc1`, the IC50 was > 79 µM (inactive).

`COc1ccccc1N1CCN(C(=O)c2ccc3nc(-c4ccco4)c(-c4ccco4)nc3c2)CC1`: the IC50 is 7.68 µM. Turning to `COc1ccc(-c2cc3nc(C)cc(N4CCN(C(=O)c5ccoc5)CC4)n3n2)cc1`, the IC50 is 69.1 µM (inactive). The same measure for `Cc1ccc(CN(C(=O)CNC(=O)c2cccs2)C(C(=O)NCC2CCCO2)c2ccccc2)cc1` (stereo unspecified): 14.9 µM (inactive); for `COCCn1ccc2c(OCC(=O)Nc3ccccc3OC)cccc2c1=O`: > 79 µM (inactive); for `O=C(Cn1nc(C(=O)O)c2ccccc2c1=O)c1c[nH]c2ccccc12`: 3.53 µM. Regarding `O=C(CSc1ccc2nnc(-c3ccc(F)cc3)n2n1)N1CCCc2ccccc21`, the IC50 was 1.21 µM. Consider `COc1cc(C(=O)Nc2cc3c(cc2N2CCCCC2)n(C)c(=O)n3C)cc(OC)c1OC`, for which the IC50 is 11.2 µM (inactive). The same measure for `CC(C)c1ccccc1NC(=O)COC(=O)c1c2c(nc3ccccc13)CCN(Cc1ccccc1)C2`: 5.25 µM. Consider `COc1ccc(OCC(O)Cn2c(Nc3cccc(C)c3)nc3c2c(=O)n(C)c(=O)n3C)cc1` (stereo unspecified), for which the IC50 was 12.9 µM (inactive). The same measure for `COc1ccccc1NC(=O)COc1ccc(/C=N/NC(=O)c2cccnc2)cc1`: 9.9 µM; for `CCOC(=O)C1CCN(C(=O)c2ccc3c(=O)n4nc(Nc5ccccc5OC)sc4nc3c2)CC1`: 6.31 µM.

In the case of `CCOC(=O)N1CCN(C(=O)CSc2nc3ccccc3c(=O)n2-c2ccccc2)CC1`, the IC50 is 18.8 µM (inactive). The same measure for `O=C(N/N=C/c1ccc(-c2cccc([N+](=O)[O-])c2)o1)c1ccc([N+](=O)[O-])cc1`: 7 µM; for `O=C(COC(=O)c1c2c(nc3ccccc13)/C(=C/c1cccc([N+](=O)[O-])c1)CCC2)NC1CCS(=O)(=O)C1` (stereo unspecified): 4.47 µM; for `NC(=O)c1nsc(C(=O)N(c2ccccc2F)C(C(=O)NCc2ccccc2)c2ccc(O)cc2)c1N` (stereo unspecified): 0.75 µM. The same measure for `CCCNC(=O)c1c(N)n(-c2cccc(OC)c2)c2nc3ccccc3nc12`: > 79 µM (inactive). The same measure for `COc1cc(/C=C/c2nnc3c4ccccc4ncn23)cc(OC)c1OC`: 4.47 µM; for `COC(=O)c1ccc(OCC(=O)Nc2ccccc2C(=O)NC2CC2)cc1`: 22.6 µM (inactive); for `O=C(N/N=C/c1cn(-c2ccccc2)nc1-c1cccnc1)c1ccccc1`: 12.7 µM (inactive). Regarding `COc1cc(C(=O)N/N=C/c2ccc(OC(=O)c3cccc(C)c3)c(OC)c2)ccc1O`, the half-maximal inhibitory concentration (IC50) is 3.16 µM. The same measure for `O=C(C(=O)N(Cc1ccccc1)Cc1ccccc1)c1c(-c2ccccc2)[nH]c2ccccc12`: 0.33 µM. Consider `CC(C)(C)NC(=O)COC(=O)c1c2c(nc3ccccc13)CCC2`, for which the IC50 is 14.6 µM (inactive). With `O=C(Nc1cc(S(=O)(=O)N2CCOCC2)ccc1N1CCCCC1)c1cc(-c2ccccn2)nc2ccccc12`, the IC50 was 3.38 µM. The same measure for `CC(=O)Nc1ccc(NS(=O)(=O)c2cc(-c3n[nH]c(=O)c4ccccc34)ccc2C)cc1`: 3.65 µM. For the compound `COc1ccc(-n2nc(C(=O)NCC(=O)Nc3cc(OC)c(OC)c(OC)c3)c3ccccc3c2=O)cc1Cl`, the IC50 was 3.02 µM. Turning to `C[C@@H]1CN([C@@H](C)CO)C(=O)c2cc(NC(=O)Nc3ccccc3)ccc2O[C@H]1CN(C)C(=O)Nc1cccc2ccccc12`, the IC50 was 8.2 µM. For `COc1cc(-c2cc(C(=O)N3CCN(c4ccccn4)CC3)c3ccccc3n2)cc(OC)c1OC` the value was 3.56 µM. The same measure for `COc1cccc2cc(-c3cc(=O)oc4ccc(OCC(C)=O)cc34)oc12`: 3.21 µM; for `c1ccc(N2CCOCC2)c(Nc2nc3ccccc3n3cnnc23)c1`: 5.28 µM.

On to `COc1ccc2c(c1OC)c(=O)n1c3ccc(OC(C)C(=O)NCCN4CCOCC4)cc3c3ccnc2c31` (stereo unspecified), for which the IC50 is 13.7 µM (inactive). For `C[C@H](CO)N1C[C@H](C)[C@@H](CN(C)C(=O)Nc2ccc3c(c2)OCO3)Oc2c(NC(=O)Nc3ccc(C(F)(F)F)cc3)cccc2C1=O` the value was 40.3 µM (inactive). The same measure for `COc1ccc(-c2csc(NC(=O)CCCc3nc4ccccc4c(=O)[nH]3)n2)cc1OC`: 3.42 µM; for `COc1ccc(OC)c(NC(=O)c2sc3ncnc(N4CCN(c5ccccn5)CC4)c3c2C)c1`: 16.2 µM (inactive). For `COC(=O)c1cc2c(C)c(C)c3ccccn3c-2c1C(=O)OC` the value was > 79 µM (inactive). On to `O=C(NCCN1CCN(c2ccccc2F)CC1)c1cccn2c(=O)c3ccccc3nc12`, for which the IC50 was 7.34 µM.

As for `CCC(=O)Oc1cccc(C(=O)Nc2ccc(-c3nnc(-c4ccco4)o3)cc2)c1`, the IC50 is > 79 µM (inactive).
